# Measurements taken from patent publication US20230085307A1, “PYRIDAZINONE COMPOUND AND HERBICIDE” (NISSAN CHEMICAL CORPORATION, priority 2019, published 2023).
# Columns and labels:
# redroot pigweed [1] = experiment: Test Example 5: herbicidal effect by foliage application, plastic box (Table 20, symbol N); assay type: in vivo, redroot pigweed (Amaranthus retroflexus); conditions: 320 g/ha, foliage application after 14-day growth, evaluated three weeks after application
# Procedure, shortened: (§1)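 Plants sown in sterilized diluvial soil and grown 14 days in a greenhouse at 25° C to 30° C, then sprayed on the foliage with the compound's emulsion diluted in water to a predetermined herbicide amount. Injury to weeds and crops scored three weeks after application on a visual rating scale.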
# wild oat [2] = experiment: Test Example 4: herbicidal effect by soil treatment (Table 19, symbol I); assay type: in vivo, wild oat (Avena fatua); conditions: amount of applied herbicide 320 g/ha
# Procedure, shortened: (§2)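 Seeds were sown in sterilized diluvial soil and covered with about 1.5 cm of soil. An emulsion formulation diluted with water to a predetermined herbicide amount was sprayed evenly onto the soil surface. Plants grew in a greenhouse at 25° C. to 30° C., and the effect was scored three weeks after application using criteria from an earlier test.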
# lambsquarters [3] = experiment: Test Example 4: herbicidal effect by soil treatment (Table 19, symbol O); assay type: in vivo, lambsquarters (Chenopodium album); conditions: amount of applied herbicide 320 g/ha
# Procedure, shortened: as §2
# chickweed [4] = experiment: Test Example 4: herbicidal effect by soil treatment (Table 19, symbol P); assay type: in vivo, common chickweed (Stellaria media); conditions: amount of applied herbicide 320 g/ha
# Procedure, shortened: as §2
# windgrass [5] = experiment: Test Example 4: herbicidal effect by soil treatment (Table 19, symbol L); assay type: in vivo, windgrass (Apera spica-venti); conditions: amount of applied herbicide 320 g/ha
# Procedure, shortened: as §2
# barnyard grass [6] = experiment: Test Example 4: herbicidal effect by soil treatment (Table 19, symbol H); assay type: in vivo, barnyard grass (Echinochloa crus-galli); conditions: amount of applied herbicide 320 g/ha
# Procedure, shortened: as §2
# late watergrass = experiment: Test Example 2: herbicidal activity, application during weed generation under submerged conditions (Table 17, symbol A); assay type: in vivo, late watergrass (Echinochloa oryzicola); conditions: AAH 320 g/ha; application during weed generation, submerged conditions
# Procedure, shortened: (§3)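 Alluvial soil in Wagner pots was flooded to 4 cm depth and sown with the three weeds together; pots were kept in a greenhouse at 25° C. to 30° C. At the one to two leaf stage, an emulsion formulation diluted in water to a set rate went onto the water surface; scored three weeks later.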
# barnyard grass [7] = experiment: Test Example 3: herbicidal effect by foliage application, Wagner pot (Table 18, symbol H); assay type: in vivo, barnyard grass (Echinochloa crus-galli); conditions: 320 g/ha
# Procedure, shortened: (§4)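 Plants were sown in alluvial soil held under 0.1–0.5 cm standing water and grown 14 days in a greenhouse at 25–30 °C. An emulsifiable formulation, water-diluted to the set dose, was then sprayed onto the foliage, and effects were scored three weeks later using previously defined criteria.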
# chickweed [8] = experiment: Test Example 5: herbicidal effect by foliage application, plastic box (Table 20, symbol P); assay type: in vivo, common chickweed (Stellaria media); conditions: 320 g/ha, foliage application after 14-day growth, evaluated three weeks after application
# Procedure, shortened: as §1
# lambsquarters [9] = experiment: Test Example 5: herbicidal effect by foliage application, plastic box (Table 20, symbol O); assay type: in vivo, lambsquarters (Chenopodium album); conditions: 320 g/ha, foliage application after 14-day growth, evaluated three weeks after application
# Procedure, shortened: as §1
# oval-leafed pondweed = experiment: Test Example 2: herbicidal activity, application during weed generation under submerged conditions (Table 17, symbol C); assay type: in vivo, oval-leafed pondweed (Monochoria vaginalis); conditions: AAH 320 g/ha; application during weed generation, submerged conditions
# Procedure, shortened: as §3
# velvetleaf [10] = experiment: Test Example 4: herbicidal effect by soil treatment (Table 19, symbol M); assay type: in vivo, velvetleaf (Abutilon theophrasti); conditions: amount of applied herbicide 320 g/ha
# Procedure, shortened: as §2
# wild oat [11] = experiment: Test Example 5: herbicidal effect by foliage application, plastic box (Table 20, symbol I); assay type: in vivo, wild oat (Avena fatua); conditions: 320 g/ha, foliage application after 14-day growth, evaluated three weeks after application
# Procedure, shortened: as §1
# barnyard grass [12] = experiment: Test Example 5: herbicidal effect by foliage application, plastic box (Table 20, symbol H); assay type: in vivo, barnyard grass (Echinochloa crus-galli); conditions: 320 g/ha, foliage application after 14-day growth, evaluated three weeks after application
# Procedure, shortened: as §1
# persian speedwell [13] = experiment: Test Example 5: herbicidal effect by foliage application, plastic box (Table 20, symbol R); assay type: in vivo, Persian speedwell (Veronica persica); conditions: 320 g/ha, foliage application after 14-day growth, evaluated three weeks after application
# Procedure, shortened: as §1
# persian speedwell [14] = experiment: Test Example 4: herbicidal effect by soil treatment (Table 19, symbol R); assay type: in vivo, Persian speedwell (Veronica persica); conditions: amount of applied herbicide 320 g/ha
# Procedure, shortened: as §2
# green foxtail [15] = experiment: Test Example 5: herbicidal effect by foliage application, plastic box (Table 20, symbol G); assay type: in vivo, green foxtail (Setaria viridis); conditions: 320 g/ha, foliage application after 14-day growth, evaluated three weeks after application
# Procedure, shortened: as §1
# velvetleaf [16] = experiment: Test Example 5: herbicidal effect by foliage application, plastic box (Table 20, symbol M); assay type: in vivo, velvetleaf (Abutilon theophrasti); conditions: 320 g/ha, foliage application after 14-day growth, evaluated three weeks after application
# Procedure, shortened: as §1
# southern crabgrass [17] = experiment: Test Example 4: herbicidal effect by soil treatment (Table 19, symbol F); assay type: in vivo, southern crabgrass (Digitaria ciliaris); conditions: amount of applied herbicide 320 g/ha
# Procedure, shortened: as §2
# windgrass [18] = experiment: Test Example 5: herbicidal effect by foliage application, plastic box (Table 20, symbol L); assay type: in vivo, windgrass (Apera spica-venti); conditions: 320 g/ha, foliage application after 14-day growth, evaluated three weeks after application
# Procedure, shortened: as §1
# redroot pigweed [19] = experiment: Test Example 4: herbicidal effect by soil treatment (Table 19, symbol N); assay type: in vivo, redroot pigweed (Amaranthus retroflexus); conditions: amount of applied herbicide 320 g/ha
# Procedure, shortened: as §2
# Japanese bulrush = experiment: Test Example 2: herbicidal activity, application during weed generation under submerged conditions (Table 17, symbol B); assay type: in vivo, Japanese bulrush (Schoenoplectus juncoides); conditions: AAH 320 g/ha; application during weed generation, submerged conditions
# Procedure, shortened: as §3
# southern crabgrass [20] = experiment: Test Example 5: herbicidal effect by foliage application, plastic box (Table 20, symbol F); assay type: in vivo, southern crabgrass (Digitaria ciliaris); conditions: 320 g/ha, foliage application after 14-day growth, evaluated three weeks after application
# Procedure, shortened: as §1
# green foxtail [21] = experiment: Test Example 4: herbicidal effect by soil treatment (Table 19, symbol G); assay type: in vivo, green foxtail (Setaria viridis); conditions: amount of applied herbicide 320 g/ha
# Procedure, shortened: as §2
# blackgrass [22] = experiment: Test Example 5: herbicidal effect by foliage application, plastic box (Table 20, symbol J); assay type: in vivo, blackgrass (Alopecurus myosuroides); conditions: 320 g/ha, foliage application after 14-day growth, evaluated three weeks after application
# Procedure, shortened: as §1
# rice flat sedge = experiment: Test Example 3: herbicidal effect by foliage application, Wagner pot (Table 18, symbol E); assay type: in vivo, rice flat sedge (Cyperus iria); conditions: 320 g/ha
# Procedure, shortened: as §4
# blackgrass [23] = experiment: Test Example 4: herbicidal effect by soil treatment (Table 19, symbol J); assay type: in vivo, blackgrass (Alopecurus myosuroides); conditions: amount of applied herbicide 320 g/ha
# Procedure, shortened: as §2
# Chinese sprangletop = experiment: Test Example 3: herbicidal effect by foliage application, Wagner pot (Table 18, symbol D); assay type: in vivo, chinese sprangletop (Leptochloa chinensis); conditions: 320 g/ha
# Procedure, shortened: as §4
# Italian ryegrass [24] = experiment: Test Example 5: herbicidal effect by foliage application, plastic box (Table 20, symbol K); assay type: in vivo, Italian ryegrass (Lolium multiflorum); conditions: 320 g/ha, foliage application after 14-day growth, evaluated three weeks after application
# Procedure, shortened: as §1
# Italian ryegrass [25] = experiment: Test Example 4: herbicidal effect by soil treatment (Table 19, symbol K); assay type: in vivo, Italian ryegrass (Lolium multiflorum); conditions: amount of applied herbicide 320 g/ha
# Procedure, shortened: as §2
smiles,measurement,setting,value
CCCC(=O)Oc1c(C)nn(C)c(=O)c1-c1c(-c2ccc(F)cc2)sc2c(Cl)cccc12 [4-016],herbicidal effect on N: redroot pigweed (evaluation grade 0-5),redroot pigweed [1],3 (Herbicidal rate of 40% or more and less than 70%)
same,"Herbicidal effect by soil treatment, I: wild oat",wild oat [2],0 (Herbicidal rate of 5% or less (almost no effect))
same,"Herbicidal effect by soil treatment, O: lambsquarters",lambsquarters [3],1 (Herbicidal rate of 5% or more and less than 20%)
same,"Herbicidal effect by soil treatment, P: chickweed",chickweed [4],1 (Herbicidal rate of 5% or more and less than 20%)
same,"Herbicidal effect by soil treatment, L: windgrass",windgrass [5],0 (Herbicidal rate of 5% or less (almost no effect))
same,"Herbicidal effect by soil treatment, H: barnyard grass",barnyard grass [6],1 (Herbicidal rate of 5% or more and less than 20%)
same,"herbicidal effect rating, A: late watergrass",late watergrass,2 (Herbicidal rate of 20% or more and less than 40%)
same,herbicidal effect on barnyard grass (H),barnyard grass [7],3 (Herbicidal rate of 40% or more and less than 70%)
same,herbicidal effect on P: chickweed (evaluation grade 0-5),chickweed [8],5 (Herbicidal rate of 90% or more (almost completely withered))
same,herbicidal effect on O: lambsquarters (evaluation grade 0-5),lambsquarters [9],1 (Herbicidal rate of 5% or more and less than 20%)
same,"herbicidal effect rating, C: oval-leafed pondweed",oval-leafed pondweed,0 (Herbicidal rate of 5% or less (almost no effect))
same,"Herbicidal effect by soil treatment, M: velvetleaf",velvetleaf [10],0 (Herbicidal rate of 5% or less (almost no effect))
same,herbicidal effect on I: wild oat (evaluation grade 0-5),wild oat [11],3 (Herbicidal rate of 40% or more and less than 70%)
same,herbicidal effect on H: barnyard grass (evaluation grade 0-5),barnyard grass [12],0 (Herbicidal rate of 5% or less (almost no effect))
same,herbicidal effect on R: persian speedwell (evaluation grade 0-5),persian speedwell [13],3 (Herbicidal rate of 40% or more and less than 70%)
same,"Herbicidal effect by soil treatment, R: persian speedwell",persian speedwell [14],0 (Herbicidal rate of 5% or less (almost no effect))
same,herbicidal effect on G: green foxtail (evaluation grade 0-5),green foxtail [15],0 (Herbicidal rate of 5% or less (almost no effect))
same,herbicidal effect on M: velvetleaf (evaluation grade 0-5),velvetleaf [16],5 (Herbicidal rate of 90% or more (almost completely withered))
same,"Herbicidal effect by soil treatment, F: southern crabgrass",southern crabgrass [17],2 (Herbicidal rate of 20% or more and less than 40%)
same,herbicidal effect on L: windgrass (evaluation grade 0-5),windgrass [18],5 (Herbicidal rate of 90% or more (almost completely withered))
same,"Herbicidal effect by soil treatment, N: redroot pigweed",redroot pigweed [19],3 (Herbicidal rate of 40% or more and less than 70%)
same,"herbicidal effect rating, B: Japanese bulrush",Japanese bulrush,0 (Herbicidal rate of 5% or less (almost no effect))
same,herbicidal effect on F: southern crabgrass (evaluation grade 0-5),southern crabgrass [20],0 (Herbicidal rate of 5% or less (almost no effect))
same,"Herbicidal effect by soil treatment, G: green foxtail",green foxtail [21],3 (Herbicidal rate of 40% or more and less than 70%)
same,herbicidal effect on J: blackgrass (evaluation grade 0-5),blackgrass [22],0 (Herbicidal rate of 5% or less (almost no effect))
same,herbicidal effect on rice flat sedge (E),rice flat sedge,4 (Herbicidal rate of 70% or more and less than 90%)
same,"Herbicidal effect by soil treatment, J: blackgrass",blackgrass [23],0 (Herbicidal rate of 5% or less (almost no effect))
same,herbicidal effect on Chinese sprangletop (D),Chinese sprangletop,5 (Herbicidal rate of 90% or more (almost completely withered))
same,herbicidal effect on K: Italian ryegrass (evaluation grade 0-5),Italian ryegrass [24],0 (Herbicidal rate of 5% or less (almost no effect))
same,"Herbicidal effect by soil treatment, K: Italian ryegrass",Italian ryegrass [25],0 (Herbicidal rate of 5% or less (almost no effect))
